“Also recorded” adds a separate entry of the source. Structures can show the parent of a compound that is named as a salt.
Legend:
SARS-CoV-2 Omicron BA.5 = test: Viral load reduction assay; type: cell-based; details: Fig. S7
VeroE6 cells = test: Cellular bismuth uptake; type: cell-based, African green monkey; details: 24 hours, ICP-MS
SARS-CoV-2 = details: read-out: EC50 (antiviral activity); previously reported; cited from earlier work

Compound	antiviral activity in virus-infected cells (SARS-CoV-2 Omicron BA.5)	cellular uptake of Bi(III) (VeroE6 cells)	EC50 (SARS-CoV-2) [nM]
Nc1ccc([O-])c(=O)cc1.Nc1ccc([O-])c(=O)cc1.Nc1ccc([O-])c(=O)cc1.[Bi+3] [Bi(Tro-NH2)3, Bi(5-aminotropolonate)3]	did not show antiviral activity as good as that at the enzyme level; also recorded: did not show potent antiviral activity in virus-infected cells	poor cellular uptake of Bi(III)	–
CNC(=C[N+](=O)[O-])NCCSCc1ccc(CN(C)C)o1 [RBC, ranitidine bismuth citrate]	–	–	2300

— article PMC11220592 (Chemical Science, 2024)
